In US10570129B2 (Zoetis Services LLC, priority 2015, dated 2020):

Columns and labels:
Haemonchus contortus L3 = assay: microbe, parasite or virus in culture; format: cell-based; details: for minimal effective concentration: Haemonchus contortus, 96 h, read-out: HcL3 Minimal Effective Concentration (MEC)
D. immitis microfilariae = assay: Dirofilaria immitis, microfilariae (DiMF) in vitro motility assay; format: cell-based; details: for minimal effective concentration: Dirofilaria immitis, 72 h, read-out: DiMF minimally effective dose (MEC)

Row | Molecule | minimal effective concentration (Haemonchus contortus L3) [µM] | minimal effective concentration (D. immitis microfilariae) [µM] | HcL3 Minimal Effective Concentration (MEC) (Haemonchus contortus L3) [µM] | DiMF minimally effective dose (MEC) (D. immitis microfilariae; decrease in microfilariae motility by subjective visual assessment, observed at 72 hours) [µM]
1 | COc1ccc2c(c1)c1c(n2C(=O)NCc2ccnc(Cl)c2)CCN(C/C=C/c2ccc(Cl)cc2)C1 [Example 512, (E)-2-(3-(4-chlorophenyl)allyl)-N-((2-chloropyridin-4-yl)methyl)-8-methoxy-1,2,3,4-tetrahydro-5H-pyrido[4,3-b]indole-5-carboxamide] | 1 | 10 |  | 
2 | N#Cc1ccc2c3c(n(C(=O)NCc4ccnc(F)c4)c2c1)CCN(C/C=C/c1ccc(Cl)c(F)c1)C3 [Example 51, (E)-2-(3-(4-chloro-3-fluorophenyl)allyl)-7-cyano-N-((2-fluoropyridin-4-yl)methyl)-1,2,3,4-tetrahydro-5H-pyrido[4,3-b]indole-5-carboxamide] | 3.3 | 5.7 |  | 
3 | O=C(NCc1ccnc(F)c1)n1c2c(c3cc(F)c(Cl)cc31)CN(C/C=C/c1ccc(F)c(Cl)c1)CC2 [Example 313, (E)-7-chloro-2-(3-(3-chloro-4-fluorophenyl)allyl)-8-fluoro-N-((2-fluoro-pyridin-4-yl)methyl)-1,2,3,4-tetrahydro-5H-pyrido[4,3-b]indole-5-carboxamide] | 0.5 | 3.3 |  | 
4 | O=C(NCc1ccnc(Cl)c1)n1c2c(c3ccc(OC(F)(F)F)cc31)CN(Cc1ccc3cc(Cl)ccc3c1)CC2 [Example 368, 2-((6-chloronaphthalen-2-yl)methyl)-N-((2-chloropyridin-4-yl)methyl)-7-(trifluoromethoxy)-1,2,3,4-tetrahydro-5H-pyrido[4,3-b]indole-5-carboxamide] | > 100 | 43.5 |  | 
5 | O=C(NCc1ccnc(F)c1)n1c2c(c3cc(C(F)(F)F)ccc31)CN(C/C=C/c1ccc(Cl)c(F)c1)CC2 [Example 415, (E)-2-(3-(4-chloro-3-fluorophenyl)allyl)-N-((2-fluoropyridin-4-yl)methyl)-8-(trifluoromethyl)-1,2,3,4-tetrahydro-5H-pyrido[4,3-b]indole-5-carboxamide] | 2.7 | 12.4 |  | 
6 | N#Cc1ccc2c(c1)c1c(n2C(=O)NCc2ccnc(F)c2)CCN(C/C=C/c2cccc(F)c2F)C1 [Example 119, (E)-8-cyano-2-(3-(2,3-difluorophenyl)allyl)-N-((2-fluoropyridin-4-yl)methyl)-1,2,3,4-tetrahydro-5H-pyrido[4,3-b]indole-5-carboxamide] | 3.3 | 18.2 |  | 
7 | O=C(NCc1cnc(Cl)s1)n1c2c(c3c(OC(F)(F)F)cccc31)CN(C/C=C/c1ccc(Cl)cc1)CC2 [Example 383, (E)-2-(3-(4-chlorophenyl)allyl)-N-((2-chlorothiazol-5-yl)methyl)-9-(trifluoromethoxy)-1,2,3,4-tetrahydro-5H-pyrido[4,3-b]indole-5-carboxamide] | > 100 | 5.7 |  | 
8 | N#Cc1ccc(/C=C/CN2CCc3c(c4cc(F)c(Cl)cc4n3C(=O)NCc3ccnc(F)c3)C2)cc1F [Example 311, (E)-7-chloro-2-(3-(4-cyano-3-fluorophenyl)allyl)-8-fluoro-N-((2-fluoro-pyridin-4-yl)methyl)-1,2,3,4-tetrahydro-5H-pyrido[4,3-b]indole-5-carboxamide] | 0.5 | 5.7 |  | 
9 | N#Cc1ccc2c(c1)c1c(n2C(=O)NCc2ccnc(Cl)c2)CCN(C/C=C/c2cc(F)c(F)c(F)c2)C1 [Example 89, (E)-N-((2-chloropyridin-4-yl)methyl)-8-cyano-2-(3-(3,4,5-trifluorophenyl)allyl)-1,2,3,4-tetrahydro-5H-pyrido[4,3-b]indole-5-carboxamide] | 0.1 | 1 |  | 
10 | O=C(NCc1ccnc(Cl)c1)n1c2c(c3cc(OC(F)(F)F)ccc31)CN(C/C=C/c1ccc(F)c(F)c1)CC2 [Example 389, (E)-N-((2-chloropyridin-4-yl)methyl)-2-(3-(3,4-difluorophenyl)allyl)-8-(trifluoromethoxy)-1,2,3,4-tetrahydro-5H-pyrido[4,3-b]indole-5-carboxamide] | 0.5 | 10 |  | 
11 | N#Cc1ccc2c3c(n(C(=O)NCc4ccnc(Cl)c4)c2c1)CCN(C/C=C/c1ccc(F)cc1Cl)C3 [Example 24, (E)-2-(3-(2-chloro-4-fluorophenyl)allyl)-N-((2-chloropyridin-4-yl)methyl)-7-cyano-1,2,3,4-tetrahydro-5H-pyrido[4,3-b]indole-5-carboxamide] | 5.7 | 7.6 |  | 
12 | N#Cc1ccc2c(c1)c1c(n2C(=O)NCc2ccnc(F)c2)CCN(C/C=C/c2ccc(F)cc2Cl)C1 [Example 114, (E)-2-(3-(2-chloro-4-fluorophenyl)allyl)-8-cyano-N-((2-fluoropyridin-4-yl)methyl)-1,2,3,4-tetrahydro-5H-pyrido[4,3-b]indole-5-carboxamide] | 0.1 | 10 |  | 
13 | CSc1ccc2c(c1)c1c(n2C(=O)NCc2ccnc(Cl)c2)CCN(C/C=C/c2ccc(Cl)cc2)C1 [Example 447, (E)-2-(3-(4-chlorophenyl)allyl)-N-((2-chloropyridin-4-yl)methyl)-8-(methylthio)-1,2,3,4-tetrahydro-5H-pyrido[4,3-b]indole-5-carboxamide] | 0.5 | 3.3 |  | 
14 | O=C(NCc1ccnc(Cl)c1)n1c2c(c3ccc(OC(F)(F)F)cc31)CN(Cc1ccc3cc(Br)ccc3c1)CC2 [Example 364, 2-((6-bromonaphthalen-2-yl)methyl)-N-((2-chloropyridin-4-yl)methyl)-7-(trifluoromethoxy)-1,2,3,4-tetrahydro-5H-pyrido[4,3-b]indole-5-carboxamide] | > 100 | 1.8 |  | 
15 | N#Cc1ccc2c(c1)c1c(n2C(=O)NCc2ccnc(F)c2)CCN(C/C=C/c2ccc(F)c(C#N)c2)C1 [Example 113, (E)-8-cyano-2-(3-(3-cyano-4-fluorophenyl)allyl)-N-((2-fluoropyridin-4-yl)methyl)-1,2,3,4-tetrahydro-5H-pyrido[4,3-b]indole-5-carboxamide] | 1.3 | > 100 |  | 
16 | (E)-N-((2-chloropyridin-4-yl)methyl)-2-(3-(3,4-dichlorophenyl)allyl)-9-methyl-1,2,3,4-tetrahydro-5H-pyrido[4,3-b]indole-5-carboxamide [Example 148] |  |  | 5.7 | 10.0
17 | O=C(NCc1ccnc(Cl)c1)n1c2c(c3ccc(C(F)(F)F)cc31)CN(C/C=C/c1ccc(F)cc1)CC2 [Example 160, (E)-N-((2-chloropyridin-4-yl)methyl)-2-(3-(4-fluorophenyl)allyl)-7-(trifluoromethyl)-1,2,3,4-tetrahydro-5H-pyrido[4,3-b]indole-5-carboxamide] | 1.8 | 10 |  | 
18 | O=C(NCc1ccnc(Cl)c1)n1c2c(c3cc(Br)c(Cl)cc31)CN(C/C=C/c1ccc(Cl)cc1)CC2 [Example 196, (E)-8-bromo-7-chloro-2-(3-(4-chlorophenyl)allyl)-N-((2-chloropyridin-4-yl)methyl)-1,2,3,4-tetrahydro-5H-pyrido[4,3-b]indole-5-carboxamide] | 0.3 | 5.7 |  | 
19 | N#Cc1cc2c(cc1F)c1c(n2C(=O)NCc2ccnc(Cl)c2)CCN(C/C=C/c2ccc(Cl)c(F)c2)C1 [Example 172, (E)-2-(3-(4-chloro-3-fluorophenyl)allyl)-N-((2-chloropyridin-4-yl)methyl)-7-cyano-8-fluoro-1,2,3,4-tetrahydro-5H-pyrido[4,3-b]indole-5-carboxamide] | 10 | > 100 |  | 
20 | N#Cc1ccc2c(c1)c1c(n2C(=O)NCc2ccnc(Cl)c2)CCN(C/C=C/c2ccc(F)c(Br)c2)C1 [Example 79, (E)-2-(3-(3-bromo-4-fluorophenyl)allyl)-N-((2-chloropyridin-4-yl)methyl)-8-cyano-1,2,3,4-tetrahydro-5H-pyrido[4,3-b]indole-5-carboxamide] | 0.3 | > 100 |  | 
21 | O=C(NCc1ccnc(Cl)c1)n1c2c(c3ccc(Br)cc31)CN(C/C=C/c1ccc(F)c(Cl)c1)CC2 [Example 439, (E)-7-bromo-2-(3-(3-chloro-4-fluorophenyl)allyl)-N-((2-chloropyridin-4-yl)methyl)-1,2,3,4-tetrahydro-5H-pyrido[4,3-b]indole-5-carboxamide] | 1.8 | 18.2 |  | 
22 | O=C(NCc1ccnc(Cl)c1)n1c2c(c3cc(C(F)(F)F)ccc31)CN(C/C=C/c1ccc(Cl)cc1)CC2 [Example 332, (E)-2-(3-(4-chlorophenyl)allyl)-N-((2-chloropyridin-4-yl)methyl)-8-(trifluoromethyl)-1,2,3,4-tetrahydro-5H-pyrido[4,3-b]indole-5-carboxamide] | 1 | 13.5 |  | 
23 | N#Cc1ccc2c(c1)c1c(n2C(=O)NCc2ccnc(O)c2)CCN(C/C=C/c2cc(Cl)c(F)c(Cl)c2)C1 [Example 452, (E)-8-cyano-2-(3-(3,5-dichloro-4-fluorophenyl)allyl)-N-((2-hydroxypyridin-4-yl)methyl)-1,2,3,4-tetrahydro-5H-pyrido[4,3-b]indole-5-carboxamide] | > 100 | > 100 |  | 
24 | N#Cc1ccc2c(c1)c1c(n2C(=O)NCc2ccnc(F)c2)CCN(C/C=C/c2cc(Br)cs2)C1 [Example 126, (E)-2-(3-(4-bromothiophen-2-yl)allyl)-8-cyano-N-((2-fluoropyridin-4-yl)methyl)-1,2,3,4-tetrahydro-5H-pyrido[4,3-b]indole-5-carboxamide] | > 100 | > 100 |  | 
25 | O=C(NCc1ccnc(Cl)c1)n1c2c(c3cc(Cl)c(Cl)cc31)CN(C/C=C/c1ccc(F)cc1F)CC2 [Example 276, (E)-7,8-dichloro-N-((2-chloropyridin-4-yl)methyl)-2-(3-(2,4-difluorophenyl)allyl)-1,2,3,4-tetrahydro-5H-pyrido[4,3-b]indole-5-carboxamide] | 0.3 | 18.2 |  | 
